# “Also recorded” adds a separate entry of the source.
# Legend:
# [1] = Nanoparticle pKa via TNS fluorescence; assay type: physicochemical; details: liposomes of the cationic lipid in buffer, probe 2-(p-toluidino)-6-napthalene sulfonic acid (TNS), 1 µM final, pH 2.5 to 12, read-out: pKa
# Protocol: Determination of Nanoparticle pKa via TNS Fluorescence. […] The solutions were mixed by pipetting and incubated at room temperature for 10 minutes, before being analysed for fluorescence intensity using a 321 nm excitation and 445 nm emission wavelengths.
# [2] = Differential scanning calorimetry, transition temperature (Tm) of lipids; assay type: physicochemical; details: liposomes of pure lipid, 10 mM in 20 mM HEPES, DSC
# Protocol: Differential Scanning calorimetery. The transition temperature (Tm) of the lipids was determined using a multicell differential scanning calorimeter (TA Instruments). Liposomes were made with triazine lipids at a concentration of 10 mM in 20 mM HEPES buffer. These were heated to 60° C. and sonicated until the solution was translucent. For Tm determination, 250 μL of the liposome solution was transferred into reusable hastelloy ampoules while 250 μL of the HEPES solution was transferred to the third ampoule, leaving the reference ampoule empty. […] Data was collected over a range of 10-110° C. at a rate of 2° C. min-1 in a heat-cool-heat cycle. After the run was complete, the CpCalc 2.1 software package was used to convert the raw data into a molar heat capacity and the data from the second heating cycle were processed using Microsoft Excel.
# BALB/c mice = assay: Anti-hAAT antibody titers and IgG subclass ratios; assay type: in vivo, mouse
# Protocol: To assess the presence of antibodies toward hAAT, 50 μL of hAAT (OriGene #RG202082) was plated at 2 μg/mL in carbonate buffer, pH 9.7, on a 96 well high binding plate (Greiner #82050-720) and incubated overnight at 4° C. The next day, the plates were washed with PBS containing 0.1% Tween-20 (PBS-T) and blocked for 1 hour with PBS-C at 37° C. After blocking, serum samples were plated at dilutions ranging from 1:100 to 1:1,000,000 and incubated at 37° C. for 2 hours. Secondary antibody (goat anti-mouse IgG HRP; Invitrogen #16066) diluted 1:2000 was applied for 30 min at 37° C., followed by a 30 min. incubation with tetramethylbenzidine (Rockland). Absorbance at 450 nm was recorded using a BioTek Synergy H1 microplate reader. Reciprocal endpoint titers were determined by plotting A450 values versus known dilutions, calculating the slope of that line, and dividing the slope by two times the average of the blank (no serum) wells.
# Anti-hAAT IgG subclass ratios were assessed as described above, using a single 1:100 sample dilution and the following detection antibodies: goat anti-mouse IgG1-HRP (Abcam ab98693) at 1:10,000, IgG2a-HRP (Abcam ab98698) at 1:5000, IgG2b-HRP (Abcam ab98703) at 1:10,000 and IgG3 (Jackson 115-035-209) at 1:5000. Subclass ratios were calculated by dividing the absorbance of each subclass by that of IgG1 for each individual mouse.
# [3] = Characterization of nanoparticles (size, zeta potential, DNA encapsulation), Example 2; assay type: physicochemical; details: LNPs made with the cationic lipid
# Protocol: The concentration of DNA in LNPs after dialysis was quantified using an AccuClear® Ultra High Sensitivity dsDNA Quantification Kit (Biotium #31027) and quantified on a BioTek Synergy H1 plate reader. Encapsulation efficiencies were determined by comparing the amount of DNA in the LNP solution vs. the DNA solution used to make them, after disrupting the LNPs with 0.5% Cl2E10 (Abcam #ab146563) and adjusting for volume differences (i.e.: excess volume added during dialysis and dilution volume during ethanol mixture).
# J774 murine macrophages = assay: CD80 expression on macrophages treated with lipid; assay type: cell-based; details: 16 hours
# From the text: Increased expression of CD80 after TZ3 treatment aligns with data observed for DOTAP,^109 and supports the hypothesis that cationic lipids activate the non-canonical NFKB pathway leading to enhanced antigen presentation and co-stimulatory molecule expression.
# in vitro = assay type: cell-based; details: female, C57BL/6J, mouse
# Protocol: Cell Culture of Bone Marrow-Derived Macrophages. […] After 7 days, the cells were transferred to tissue culture 96 well plates (Corning) at a density of 100,000 in 20 μL of medium and allowed to settle overnight for subsequent assays.
# Lactate Dehydrogenase Release (LDH) Toxicity Assay. For determination of cytotoxicity, mature bone marrow-derived macrophages (BMDM) were treated with 20 μL of the lipids (concentrations denoted in figure legend) diluted in 20 mM HEPES buffer, with HEPES buffer as negative control and 10% Triton X-100 as positive control. After 24 hours, the 96 well plates were centrifuged at 200×g for 5 minutes to remove debris and 100 μL of media was transferred to an untreated flat-bottom 96 well plate. Next, 100 μL of LDH reaction reagent purchased from Cayman Chemical (Ann Arbor, MI) was added to each and allowed to sit for 30 minutes at 37° C. Absorbance at 490 and 680 nm were measured using a BioTek Synergy H1 plate reader and the data were processed using Microsoft Excel. Mean values from triplicates are shown for one of two independent experiments.
# C57BL/6J mice = assay: In vivo toxicity of cationic lipid nanoparticles (ALT, IL-6, SCr, mortality)
# [4] = 20 mM lipid, i.p., versus baseline
compound,measurement,setting,value
CCCCCCCCCCCCN(CCCCCCCCCCCC)c1nc(NCCCN)nc(NCCCN)n1 [Lipid 3],pKa,[1],7.37
same,Tm,[2],< 10 °C
same,increase in anti-hAAT titers versus the two control lipids,"BALB/c mice; 25 μg hAAT protein concurrent with 1 mM lipid, day 14",1000 fold
same,increase in antibody titer toward a model antigen,BALB/c mice; absence of additional adjuvants (FIG. 60),greater than 3 orders of magnitude
same,"ratios of IgG2a, 2b and 3 to IgG1",BALB/c mice; hAAT protein delivered with lipids,more balanced IgG2a/IgG1 ratio than DOTAP and DMPC
same,antibody response relative to DOTAP,BALB/c mice; hAAT protein delivery,two orders of magnitude greater than DOTAP
same,RET (anti-hAAT),BALB/c mice; lipid used to deliver the hAAT protein,"> 100,000"
same,anti-hAAT IgG titers,"BALB/c mice; transgene delivery, 10 μg hAAT DNA, day 14, versus untreated mice",significantly higher anti-hAAT titers than untreated mice
same,"Th1/Th2 response (ratios of IgG2a, 2b, and 3 over IgG1)",BALB/c mice; transgenic hAAT delivery with LPs,balanced Th1/Th2 response
same,encapsulation of DNA (general),[3],60-70%
same,CD80 expression,"J774 murine macrophages; MFI relative to untreated cells, listed as TZ3","does-dependent increase in mean fluorescence intensity (MFI) of CD80; also recorded: dose-dependent increase in expression of the co-stimulatory molecule, CD80"
same,cell viability (ZombieDye live/dead stain),J774 murine macrophages; across lipid concentrations,cells are viable across lipid concentrations
same,IC50 at 24 h,in vitro,111 µM
same,interleukin 6 (IL-6),C57BL/6J mice; [4],trended upward
same,serum alanine aminotransferase (ALT),C57BL/6J mice; [4],trended upward
same,in vivo toxicity (overall),"C57BL/6J mice; 100 μL cationic lipid nanoparticles i.p., listed as TZ3",comparable toxicity to DOTAP; also recorded: does not induce significant in vivo toxicity
